Assay results: article PMC10224356, “Trisubstituted 1,3,5-Triazines as Histamine H4 Receptor Antagonists with Promising Activity In Vivo” (Molecules, 2023)

How the values were obtained:
mice [1] = experiment: Formalin test; format: in vivo; conditions: for Paw licking/biting, late phase of formalin test, % of the control group: 15–30 min after formalin
Protocol: The blockade of H4Rs expressed in inflammatory cells results in anti-inflammatory and analgesic effects. On the contrary, the activation of neuronal H4Rs leads to analgesia.
The procedure used was essentially the same as that described previously. […] The total time (in s) spent on licking the injected paw during periods of 0–5 min (early phase, neurogenic) and 15–30 min (late phase, inflammatory) was measured and was considered as an indicator of nociceptive behaviour. Before formalin injection different groups of mice were treated i.p. with vehicle (10 mL/kg, negative control) and the dose–response of the investigated compound.

mice [2] = experiment: Chloroquine-induced pruritus; format: in vivo
From the text: When comparing the activity of the tested in both used models, it should be noted that the efficacy (higher maximal effect) and potency (lower doses needed to obtain the same result) of the compound were better in histamine-induced pruritus. Nevertheless, compound 6 was also active in histamine-independent itch, which contrasts with the activity of pyrilamine representing a commonly used drug in the treatment of pruritus. […] The wide spectrum of antipruritic activity of compound 6 is very promising, considering that histamine-independent itch is still a crucial clinical problem in pruritus treatment.
The surface (around 2 cm^2) of the mice’s nape was shaved at least 2 days prior to experiments. On the day of the experiment, mice were individually placed in plastic chambers (15 × 15 × 30 cm) and after the 30 min habituation period, they were given an intradermal (i.d.) injection of histamine dihydrochloride (10 µmol/site) or chloroquine (CQ, 200 µg/site), which were dissolved in physiological saline and administrated in the constant volume of 20 μL. Immediately after the injection, scratching (series of movements considered as a single scratching bout) of the injected site by the hind paw was counted for 60 min or 30 min after histamine and CQ administration, respectively. Before pruritogens injection different groups of mice were treated i.p. with vehicle (10 mL/kg, negative control) or the dose–response of investigated compound.
Figure 9 The effect of compound 6 and reference compound pyrilamine (Pyr) on the number of scratching bouts during 60 min-long observation in histamine-induced pruritus (A) and 30 min-long observation in chloroquine-induced pruritus (B). The tested compound or vehicle (1% solution of Tween 80) was administered intraperitoneally (i.p.) 30 min before the intradermal (i.d.) injection of histamine or chloroquine. The results are presented as bar plots showing the mean ± SEM. Statistical analysis: one-way ANOVA followed by Dunnett’s post hoc test, * p < 0.05, ** p < 0.01, *** p < 0.001, n = 8–10 mice per group.

H1R = H1R (Homo sapiens, UniProt P35367); experiment: Preliminary study at H1R
hH4R [3] = target: T1, hH4R (Homo sapiens, UniProt Q9H3N8); experiment: cAMP accumulation assay (LANCE Ultra cAMP, CHO-K1 cells stably expressing hH4R); format: cell-based; design: expressed in transfected cells
Protocol: Intrinsic activity via the Gα subunit was measured using a LANCE Ultra cAMP detection kit and CHO-K1 cells stably expressing hH4R. Adenyl cyclase was stimulated by forskolin (10 µM).
Intrinsic activity in G protein-dependent pathway was measured with homogenous TR-FRET immunoassay, using LANCE Ultra cAMP kit and CHO-K1 H4R cell line or γ-irradiated recombinant CHO-K1 H4R cells (all from PerkinElmer). […] If the CHO-K1 H4R cell line was used it had been cultivated in DMEM/F12 10% FBS 400 µg/mL geneticin and passaged three times a week. […] The antagonist activity was measured in a white, opaque, 384-well microplate (PerkinElmer) with a total volume of 20 µL. […] After incubation, 5 µL of europium chelate-labelled cAMP tracer and 5 µl of ULight-labelled anti-cAMP mAb working solutions were added, mixed and incubated for 1 h. TR-FRET signal was read using a microplate reader (PerkinElmer, Waltham, MA, USA).

hH4R [4] = target: T1, hH4R; experiment: as above; format: cell-based; design: expressed in transfected cells; conditions: antagonist mode
hH4R [5] = target: T1, hH4R; experiment: β-arrestin recruitment assay (LiveBLAzer, Tango-H4-bla U2OS cells); format: cell-based; design: expressed in transfected cells; host or cells: Tango-H4-bla U2OS cells
Protocol: Compounds were tested using LiveBLAzer^TM assay and Tango-H4-bla U2OS cells, allowing the estimation of the percentage of β-arrestin recruitment in response to tested treatments.
All used media and reagents except DMSO and tested compounds were purchased from ThermoFisher Scientific, Waltham, MA, USA. DMSO was from CarlRoth (Karlsruhe, Germany) and histamine was from Sigma Aldrich (Darmstadt, Germany). […] The day before the experiment cells were collected from the culture flask with trypsin and seeded in 384 well black-wall, clear-bottom plate (PerkinElmer, Waltham, MA, USA) in concentration 10,000 cells/well in FreeStyle medium. After 24 h of incubation, the cells were checked under the microscope and the dilutions of tested compounds were prepared and added to the wells. In agonist mode compounds were added to the wells and plates were placed in the incubator (HERAcell240, Heraeus, Hanau, Germany) for 16 h. In antagonist mode, first, the compounds were added to the wells, plates were incubated for 30 min, then histamine solution (corresponding to EC80—500 nM) was added and plates were put in the incubator for 16 h. After this time β-lactamase substrate mixture was prepared and added to wells (8 µL/well). Cells were incubated for 2 h at room temperature in the dark then the signal was read using an EnSpire microplate reader (PerkinElmer, Waltham, MA, USA). Drawing of dose-dependent curves and IC50 calculation for compounds were made using GraphPad Prism 6 (GraphPad Software, San Diego, CA, USA).

T1 sequence (Q9H3N8 whole entry): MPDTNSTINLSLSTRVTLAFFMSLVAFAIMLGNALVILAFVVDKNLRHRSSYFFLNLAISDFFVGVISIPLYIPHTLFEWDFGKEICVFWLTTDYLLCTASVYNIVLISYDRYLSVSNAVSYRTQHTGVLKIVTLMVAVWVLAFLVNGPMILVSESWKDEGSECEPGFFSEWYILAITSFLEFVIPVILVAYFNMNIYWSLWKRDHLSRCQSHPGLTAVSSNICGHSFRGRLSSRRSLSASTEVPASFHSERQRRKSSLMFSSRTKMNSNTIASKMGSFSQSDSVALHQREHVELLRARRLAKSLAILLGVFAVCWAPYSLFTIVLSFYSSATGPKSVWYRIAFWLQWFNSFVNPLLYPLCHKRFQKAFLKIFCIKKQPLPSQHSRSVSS
Chain of H1R (P35367 whole entry, species assumed): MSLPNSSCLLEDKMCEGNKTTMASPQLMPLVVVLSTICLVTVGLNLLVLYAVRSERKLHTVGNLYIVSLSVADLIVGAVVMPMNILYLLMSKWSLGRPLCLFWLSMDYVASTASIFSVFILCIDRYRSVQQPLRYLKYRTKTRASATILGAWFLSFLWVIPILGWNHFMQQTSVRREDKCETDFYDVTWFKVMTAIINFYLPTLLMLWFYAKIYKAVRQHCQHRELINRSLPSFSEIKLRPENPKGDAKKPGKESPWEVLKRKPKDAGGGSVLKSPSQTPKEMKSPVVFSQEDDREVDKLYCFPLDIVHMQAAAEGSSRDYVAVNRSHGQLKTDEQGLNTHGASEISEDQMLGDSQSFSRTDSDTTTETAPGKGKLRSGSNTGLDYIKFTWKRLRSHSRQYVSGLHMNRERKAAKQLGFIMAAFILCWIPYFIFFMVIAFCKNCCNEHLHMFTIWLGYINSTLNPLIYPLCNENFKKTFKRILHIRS

`CN1CCN(c2nc(N)nc(CC3CCCC3)n2)CC1` [Compound 6, 4-(Cyclopentylmethyl)-6-(4-methylpiperazin-1-yl)-1,3,5-triazin-2-amine] was tested, and the “Paw licking/biting, late phase of formalin test, % of the control group” value (mice [1]; 50 mg/kg i.p.) was 44.02 % of the control group, the “Paw licking/biting, late phase of formalin test, % of the control group” value (mice [1]; 75 mg/kg i.p.) was 56.62 % of the control group and the “Duration of nociceptive response, acute phase of formalin test” value (mice [1]; i.p., 0–5 min after formalin) was “did not significantly affect”. The “Scratch bouts, chloroquine-induced pruritus, % of the control value” (mice [2]; 50 mg/kg i.p., 30 min observation) was 25.12 % of the control value, the “Number of scratch bouts, chloroquine-induced pruritus” value (mice [2]; 50 mg/kg i.p., 30 min observation (control 72.20 ± 11.59)) was 18.14 ± 3.48 scratch bouts and the “Effect on number of scratch bouts, chloroquine-induced pruritus” value (mice [2]; doses 25 mg/kg and 50 mg/kg i.p.) was “significantly decreased the number of scratch bouts”. The “Effect on number of scratch bouts, chloroquine-induced pruritus” value (mice [2]; doses of 6.25 mg/kg and 12.5 mg/kg i.p.) was “not statistically significant”, the “H1R activity at 10 µM” value (H1R) was 0% and the IC50 (hH4R [3]; antagonist mode, forskolin 10 µM, histamine 140 nM, CHO-K1 hH4R cells, read-out: cAMP hH4R IC50 ± SEM) was 10 ± 2 nM. For the same molecule, the Kb (hH4R [3]; calculated from IC50 by Leff–Dougall variant of Cheng–Prusoff equation, read-out: pKb cAMP ± SEM (converted)) was 3.55 nM, the “cAMP hH4R % of max. Antagonist Activity at 10 µM” value (hH4R [4]) was 100% and the IC50 (hH4R [5]; antagonist mode, histamine 500 nM (EC80), Tango-H4-bla U2OS cells, read-out: β-arrestin hH4R IC50 ± SEM) was 10 ± 1 nM. The “β-arrestin hH4R % of max. Antagonist Activity at 10 µM” value (hH4R [5]; at 10 µM, antagonist mode) was 101% and the Kb (hH4R [5]; calculated from IC50 by Leff–Dougall variant of Cheng–Prusoff equation, read-out: pKb β-arrestin ± SEM (converted)) was 1.62 nM.
